Experiments:
[1] = test system: tissues and organs of the intraperitoneal cavity in mice; assay: delivery of methylene blue from PAG hydrogel to tissues and organs of the intraperitoneal cavity in mice; format: in vivo
Method: The delivery of the dye from the charged hydrogel to the tissues and organs of the intraperitoneal cavity in mice is observed.
To do this, an isotonic solution of PAG (molar mass equal to about 176 000 g/mol, 6% by weight of PAG) containing methylene blue (4 ml of solution (20 mg of dye) per 16 ml of gel) formed at 60° C. conditioned is introduced into heated syringes to be injected rapidly at 45° C. through a 23-gauge needle in order to fill the intraperitoneal cavity of the mice.
The mice treated according to the regulatory procedures were sacrificed after 2 hours, 8 hours, 24 hours, 30 hours and 52 hours (two animals per point).
After opening the abdomen, the distributions of the blue color in the gel, the tissues and the organs were assessed visually and compared at the same times with those observed for the control mice which received by similar injection an isotonic solution of the same concentration of methylene blue.

[2] = release of drug models from PAG hydrogel into physiological serum at 37° C. (UV spectrometry); format: physicochemical
Method: 60 mg of PAG polymer of molecular mass equal to 170 000 g/mol are placed in contact with 1 mil of physiological serum (6% by mass) in a small, hermetically scaled cylindrical flask and heated at 60° C. for a few minutes to obtain a clear, homogeneous solution, which is gelled by cooling.
The cycle is repeated twice to perfect the homogeneity of the gel.
10 mg of the compound chosen as drug model are added. The mixture is heated to have a homogeneous solution, which is left to cool to obtain the compound-gel system.
The flask is placed in a mobile incubator at 37° C. after having added on top of the gel formed 1 ml of physiological serum, into which the compound trapped in the hydrogel gradually diffuses. The receiving medium is then renewed at regular intervals and the compound that has diffused is evaluated quantitatively by UV spectrometry. The curve of gradual release is plotted as a percentage of the amount initially placed in the gel.

SMILES | time after which the blue color totally disappeared ([1]; control mice: isotonic solution of the same concentration without PAG, intraperitoneal injection) | time the gel, tissues and organs, especially the liver, remained colored ([1]; in isotonic PAG solution (about 176 000 g/mol, 6% by weight), injected at 45° C. intraperitoneally, mice) | extent of release from the gel ([2]; 10 mg in PAG 170 000 g/mol gel, 6% by mass in physiological serum, 37° C.) | "burst" release as percentage of the amount initially placed in the gel ([2]; at 1 hour, 10 mg in PAG 170 000 g/mol gel, 6% by mass in physiological serum, 37° C.) | dissolution in the same medium without gel ([2]; physiological serum, without gel)
CN(C)c1ccc2nc3ccc(=[N+](C)C)cc-3sc2c1 [methylene blue] | 24 h | at least 52 hours | – | – | –
CC(=O)[O-].CC(=O)[O-].[Co+2] [cobalt acetate] | – | – | gradual release until depletion is complete | less than 15% | dissolves instantaneously in its entirety

From patent US9687552B2, “Association of poly(N-acryloylglycinamide) with at least one active principle” (CENTRE NATIONAL DE LA RECHERCHE SCIENTIFIQUE, priority 2012, dated 2017)
